Results as given in ChEMBL document CHEMBL5036302, “Amphiol, an Antifungal Fungal Pigment from Pseudogymnoascus sp. PF1464” (2021).
≈ marks a conversion by molar mass, not a printed value.

Legend:
Type in all cases: functional
Staphylococcus aureus = assay: Antibacterial activity against Staphylococcus aureus assessed as inhibition of bacterial growth by CLSI protocol based microbroth dilution method
Aspergillus fumigatus = assay: Antifungal activity against Aspergillus fumigatus assessed as inhibition of fungal growth by CLSI protocol based microbroth dilution method
[1] = tested on: Schizosaccharomyces pombe; assay: Antifungal activity against Schizosaccharomyces pombe assessed as inhibition of fungal growth by CLSI protocol based microbroth dilution method
Escherichia coli = assay: Antibacterial activity against Escherichia coli assessed as inhibition of bacterial growth by CLSI protocol based microbroth dilution method
Candida albicans = assay: Antifungal activity against Candida albicans assessed as inhibition of fungal growth by CLSI protocol based microbroth dilution method

SMILES	MIC (Staphylococcus aureus) [µg/mL]	MIC (Aspergillus fumigatus) [µg/mL]	MIC [1] [µg/mL]	MIC (Escherichia coli) [µg/mL]	MIC (Candida albicans) [µg/mL]
CC(/C=C/C=C/C=C/C=C/C=C/C=C/c1cc(O)c([C@@H]2O[C@H](CO)[C@@H](O)[C@H](O)[C@H]2O)c(=O)o1)=C\[C@H](C)C(=O)[C@@H](C)C[C@@H](C)[C@H](C)O	> 64	16 (≈ 25 µM)	0.8 (≈ 1.25 µM)	> 64	8 (≈ 12.5 µM)
C[C@@H]1[C@H](O)[C@@H](C)/C=C/C=C/C=C/C=C/C=C/C=C/C=C/[C@H](O[C@@H]2O[C@H](C)[C@@H](O)[C@H](N)[C@@H]2O)C[C@@H]2O[C@](O)(C[C@@H](O)C[C@@H](O)[C@H](O)CC[C@@H](O)C[C@@H](O)CC(=O)O[C@H]1C)C[C@H](O)[C@H]2C(=O)O [AMPHOTERICIN B]			0.13 (≈ 0.141 µM)		
